Measurements taken from the NIST ThermoML archive (doi:10.1021/acs.jced.8b00589).

Assays:
[1] = for surface tension liquid-gas: Ring tensiometer; for viscosity / speed of sound / mass density: 100 kPa, Liquid; for viscosity: Capillary tube (Ostwald / Ubbelohde) method; for speed of sound: Frequency=2 MHz, Linear variable-path acoustic interferometer; for mass density: Vibrating tube method
[2] = xn = mol fraction of the nth substance listed; conditions: x2 = 0; for surface tension liquid-gas: Ring tensiometer; for viscosity / speed of sound / mass density: 100 kPa, Liquid; for viscosity: Capillary tube (Ostwald / Ubbelohde) method; for speed of sound: Frequency=2 MHz, Linear variable-path acoustic interferometer; for mass density: Vibrating tube method

CCC(C)(C)OC [2-methoxy-2-methylbutane]
[1]
Conditions	mass density [kg/m3]	speed of sound [m/s]	surface tension liquid-gas [mN/m]	viscosity [mPa·s]
298.15 K	765.6	1118	19.72	0.424
308.15 K	756.3	1075.6	18.66	0.39
318.15 K	746.3	1031.1	17.65	0.357
323.15 K	741.4	1003	17.13	0.34
328.15 K	736.5	985.24	16.62	0.328

CCCCCC [hexane] + CCC(C)(C)OC
[2]
Conditions	mass density [kg/m3]	speed of sound [m/s]	surface tension liquid-gas [mN/m]	viscosity [mPa·s]
298.15 K	654.7	1073.2	17.75	0.295
308.15 K	645.4	1031.2	16.63	0.263
318.15 K	636.2	981.23	15.52	0.24
323.15 K	631.2	960.75	14.96	0.232
328.15 K	626.4	940.35	14.41	0.223

Cc1cccc(C)c1 [1,3-dimethylbenzene] + CCC(C)(C)OC
[2]
Conditions	mass density [kg/m3]	speed of sound [m/s]	surface tension liquid-gas [mN/m]	viscosity [mPa·s]
298.15 K	859.1	1320.9	28.19	0.59
308.15 K	849.2	1280	26.95	0.525
318.15 K	840.4	1238.2	25.64	0.482
323.15 K	835.8	1218.4	25	0.443
328.15 K	831.6	1195.2	24.37	0.433

CCCCCC [hexane]
[1]
Conditions	mass density [kg/m3]	speed of sound [m/s]	surface tension liquid-gas [mN/m]	viscosity [mPa·s]
298.15 K	654.7	1073.2	17.75	0.295
308.15 K	645.4	1031.2	16.63	0.263
318.15 K	636.2	981.26	15.52	0.24
323.15 K	631.2	960.75	14.96	0.232
328.15 K	626.4	940.39	14.41	0.223

Cc1cccc(C)c1 [1,3-dimethylbenzene]
[1]
Conditions	mass density [kg/m3]	speed of sound [m/s]	surface tension liquid-gas [mN/m]	viscosity [mPa·s]
298.15 K	859.1	1320.9	28.19	0.59
308.15 K	849.2	1280	26.95	0.525
318.15 K	840.4	1238.2	25.64	0.482
323.15 K	835.8	1218.4	25	0.443
328.15 K	831.6	1195.2	24.37	0.433
